# Reference: patent publication US6784208B2, “Method for preventing and treating visceral pain and gastrointestinal disorders” (Warner-Lambert Company, priority 2001, dated 2004)
# Like-named read-outs stand apart in the source and are kept apart here.
# Experiments:
# [1] = test system: TNBS-induced chronic visceral allodynia; experiment: TNBS-induced chronic visceral allodynia in rats (colonic distension); format: in vivo, rat; settings: for Inhibition at 1 h (%) of the TNBS-induced decrease in the pain threshold: 1 h before colonic distension, rats
# Procedure: In this experimental model of colonic distension in awake rats, previous injection of TNBS into the proximal colon had lowered the visceral pain threshold.
# Male Sprague-Dawley rats weighing 340-400 g are used. The animals are housed 3 per cage in a regulated environment (20±1° C., 50±5% humidity, with light 8:00 am to 8:00 pm). At day 0, under anesthesia (ketamine 80 mg/kg ip.; acepromazine 12 mg/kg ip.), the injection of TNBS (50 mg/kg in ethanol 30%), or saline (1.5 ml/kg) for control rats, is performed into the proximal colon wall (1 cm from the cecum). After the surgery, animals are individually housed in polypropylene cages and kept in a regulated environment (20±1° C., 50±5% humidity, with light 8:00 a.m. to 8:00 p.m.) during 7 days. At day 7 after TNBS administration, a balloon (5-6 cm length) is inserted by anus, and kept in position (tip of balloon 5 cm from the anus) by taping the catheter to the base of the tail. Oral administration of gabapentin or the compound of formula Ia is performed 1 h before the colonic distension cycle: the balloon is progressively inflated by steps of 5 mm Hg (0.667 kPa), from 0 to 75 mm Hg, each step of inflation lasting 30 s. Each cycle of colonic distension is controlled by a standard barostat. The threshold (mm Hg) corresponds to the pressure which produced the first abdominal contraction, and the cycle of distension is then discontinued. The colonic threshold is determined after performance of four cycles of distension on the same animal.
# Data is analyzed by comparing test compound-treated groups with a TNBS only-treated group and the control group. Mean and SEM are calculated for each group. The antiallodynic activity of each oral dose of the test compound is calculated as follows: [formula]
# where A=mean threshold of the test compound-treated group,
# T=mean threshold of the TNBS only-treated group,
# C=mean threshold of the control group.
# The results measured in the test compound-treated groups are expressed in % inhibition of the TNBS-induced decrease in the pain threshold. Statistical significance between each group was determined by using a one-way ANOVA followed by Student's unpaired t-test; differences were considered statistically significant at p<0.05.
# [2] = test system: LPS-induced rectal hypersensitivity; experiment: LPS-induced rectal hypersensitivity in rats (rectal distension, abdominal contractions); format: in vivo, rat; settings: for inhibition of the number of abdominal contractions induced by rectal distension: distension at 0.4 ml, LPS treated rats
# Procedure: Animals are surgically prepared for electromyography: rats are anaesthetized by intraperitoneal injection of acepromazine (0.6 mg/kg) and ketamine (120 mg/kg). […] Electrodes are exteriorized on the back of the neck and protected by a glass tube attached to the skin. Animals are individually housed in polypropylene cages and kept in a temperature-controlled room (21° C.). Food (UAR pellets, Epinay, France) and water are provided ad libitum.
# Electromyographic recordings begin five days after surgery. The electrical activity of abdominal striated muscles is recorded with an electroencephalograph machine (Mini VIII Alvar, Paris, France) using a short time constant (0.03 s) to remove low-frequency signals (<3 Hz) and a paper speed of 3.6 cm/min. Spike bursts are recorded as an index of abdominal contractions.
# Distension procedure: Rats are placed in plastic tunnels (6 cm diameter×25 cm long), where they cannot move, escape, or turn around, in order to prevent damage to the balloon. Animals are accustomed to this procedure for four days before rectal distension in order to minimize stress reactions during experiments. The balloon used for distension is an arterial embolectomy catheter (Fogarty, Edwards Laboratories Inc.). Rectal distension is performed by insertion of the balloon (2 mm diameter×2 cm long) into the rectum, at 1 cm from the anus, and catheter is fixed at the base of the tail. It is inflated progressively with tepid water by steps of 0.4 ml, from 0 to 1.2 ml, each step of inflation lasting 5 min. To detect possible leakage, the volume of water introduced in the balloon is checked by complete removal with a syringe at the end of the distension period.
# Experimental protocol: Rats are injected i.p. with LPS (1 mg/kg (Escherichia coli, serotype O111:B4) Sigma-Aldrich chemical Co., St Louis, Mo.) or its vehicle, and rectal distension with concomitant electromyographic recording of abdominal contractions is performed 9 and 12 h after this administration. To determine the antinociceptive properties of gabapentin and the compound of formula Ia in hyperalgesia conditions, gabapentin (10 and 30 mg/kg) and the compound of formula Ia (0.01, 0.03 and 0.1 mg/kg) or the vehicle (NaCl 0.9% 0.3 ml/rat) are administered per os 1 h before rectal distension but preceded (12 h) by injection of LPS (1 mg/kg i.p.).
# Drugs: All compounds were dissolved in sterile NaCl (0.9% isotonic saline) immediately before use.
# Statistics: Statistical analysis of the number of abdominal contractions occurring during each period of rectal distension is performed by one-way ANOVA followed by parametric Student's unpaired t test.
# [3] = test system: TNBS-induced chronic visceral allodynia; settings: cited from earlier work
compound,measurement,setting,value
1-(aminomethyl)cyclohexane acetic acid [gabapentin],Inhibition at 1 h (%) of the TNBS-induced decrease in the pain threshold,[1]; 100 mg/kg p.o.,14.7 ± 5.1%
same,Inhibition at 1 h (%) of the TNBS-induced decrease in the pain threshold,[1]; 300 mg/kg p.o.,48.6 ± 13.3%
same,Inhibition at 1 h (%) of the TNBS-induced decrease in the pain threshold,[1]; 500 mg/kg p.o.,64.9 ± 10.5%
same,Inhibition at 1 h (%) of the TNBS-induced decrease in the pain threshold,[1]; 1000 mg/kg p.o.,75.2 ± 6.1%
same,"median effective dose (ED50), antiallodynic activity","[1]; p.o., TNBS-treated rats",321 mg/kg
same,inhibition of the number of abdominal contractions induced by rectal distension,"[2]; 10 mg/kg p.o., not significant",24.9%
same,inhibition of the number of abdominal contractions induced by rectal distension,[2]; 30 mg/kg p.o.,85.3%
same,effect on TNBS-induced colonic hypersensitivity,[3]; model of chronic allodynia (Diop et al. 1998),suppress
same,effect on colonic threshold,"[3]; s.c. route, control conditions",not to modify the colonic threshold
"NC[C@]1(CC(=O)O)C[C@H]2CC[C@H]2C1 [compound of formula Ia, (1α,3α,5α)-3-aminomethyl-bicyclo[3.2.0]heptane-3-acetic acid]",Inhibition at 1 h (%) of the TNBS-induced decrease in the pain threshold,[1]; 3 mg/kg p.o.,21.7 ± 3.0%
same,Inhibition at 1 h (%) of the TNBS-induced decrease in the pain threshold,[1]; 10 mg/kg p.o.,34.2 ± 5.7%
same,Inhibition at 1 h (%) of the TNBS-induced decrease in the pain threshold,[1]; 30 mg/kg p.o.,58.8 ± 6.2%
same,Inhibition at 1 h (%) of the TNBS-induced decrease in the pain threshold,[1]; 60 mg/kg p.o.,90.4 ± 9.8%
same,ED50,"[1]; Rattus norvegicus, po, TNBS-treated rats, read-out: median effective dose (ED50), antiallodynic activity",14.4 mg/kg
same,effect on the number of abdominal contractions induced by rectal distension,"[2]; 0.01, 0.03 and 0.1 mg/kg po, distension at 0.4 ml after LPS treatment (FIG. 1)",inhibits in a dose-related manner
same,fold more potent than gabapentin,"[2]; LPS-induced rectal hypersensitivity model, p.o.",about 500 fold
same,ED50,"[2]; Rattus norvegicus, po, distension at 0.4 ml after LPS treatment, read-out: ED50, inhibition of abdominal contractions induced by rectal distension",0.037 mg/kg
CN1CC[C@]23c4c5ccc(O)c4O[C@H]2[C@@H](O)C=C[C@H]3[C@H]1C5 [morphine],effect on colonic threshold,"[3]; s.c., both TNBS-treated animals and controls",increased the colonic threshold
